Results from patent US12662491B2 (Redona Therapeutics, Inc., priority 2020, dated 2026).
Counter-ions that a name gives are not always drawn. Like-named read-outs stand apart in the source and are kept apart here.

Target: T1, Zcchc11 enzyme (Homo sapiens, UniProt Q5TAX3)
T1 construct: made in house; host or cells: HEK293 cells (Zcchc11); E. coli Rosetta II (LIN28A)
T1 sequence (Q5TAX3 212-1420): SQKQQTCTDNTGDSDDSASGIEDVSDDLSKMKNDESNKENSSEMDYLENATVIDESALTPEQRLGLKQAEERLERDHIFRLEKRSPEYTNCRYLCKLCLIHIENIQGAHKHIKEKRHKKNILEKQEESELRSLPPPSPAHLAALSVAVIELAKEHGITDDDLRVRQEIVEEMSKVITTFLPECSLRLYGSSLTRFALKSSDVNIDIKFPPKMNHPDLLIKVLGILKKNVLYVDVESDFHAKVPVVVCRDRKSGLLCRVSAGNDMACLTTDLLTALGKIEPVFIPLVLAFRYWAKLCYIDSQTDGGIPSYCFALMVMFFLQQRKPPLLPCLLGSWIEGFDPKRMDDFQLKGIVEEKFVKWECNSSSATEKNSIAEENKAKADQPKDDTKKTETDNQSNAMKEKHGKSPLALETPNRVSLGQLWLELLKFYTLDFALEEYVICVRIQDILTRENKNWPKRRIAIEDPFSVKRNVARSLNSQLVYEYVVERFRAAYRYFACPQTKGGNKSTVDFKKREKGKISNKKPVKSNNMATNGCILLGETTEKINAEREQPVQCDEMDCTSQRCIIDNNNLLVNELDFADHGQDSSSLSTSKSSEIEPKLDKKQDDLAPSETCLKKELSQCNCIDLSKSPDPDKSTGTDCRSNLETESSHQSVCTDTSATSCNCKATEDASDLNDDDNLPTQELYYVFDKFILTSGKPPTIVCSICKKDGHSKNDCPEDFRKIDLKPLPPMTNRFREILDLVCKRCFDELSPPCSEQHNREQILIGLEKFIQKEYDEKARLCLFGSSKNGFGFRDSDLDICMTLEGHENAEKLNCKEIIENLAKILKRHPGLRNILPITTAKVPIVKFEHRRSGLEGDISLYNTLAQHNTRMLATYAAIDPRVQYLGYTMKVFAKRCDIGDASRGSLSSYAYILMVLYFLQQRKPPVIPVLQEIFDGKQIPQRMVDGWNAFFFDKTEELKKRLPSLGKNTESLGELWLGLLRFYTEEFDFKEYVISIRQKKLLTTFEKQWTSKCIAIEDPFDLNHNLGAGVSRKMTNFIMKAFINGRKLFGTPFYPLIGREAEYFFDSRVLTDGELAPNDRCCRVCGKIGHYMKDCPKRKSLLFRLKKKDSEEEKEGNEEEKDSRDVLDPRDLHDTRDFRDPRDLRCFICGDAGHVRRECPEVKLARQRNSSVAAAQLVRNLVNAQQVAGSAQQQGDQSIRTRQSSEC
Test: TUTase assay (Zcchc11 assay, Lin28a-dependent polyuridylation of pre-let-7)
Type: biochemical
Conditions: read-out: Potency Lin28a-dep Z11 IC50
Procedure, shortened: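 Polyuridylation measured as fluorescein loss when a rhodamine-labelled A20 probe anneals to U-tails added to fluorescein pre-let-7 (2 nM). Reaction: truncated Zcchc11 0.2 nM, E. coli-made LIN28A 10 nM, UTP 5 uM, HEPES pH 7.3, room temperature. Initial rates fitted to four-parameter IC50.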

[1] = Lin28a-dependent Zcchc11 (Z11) TUTase activity
[2] = LIN28A 10 nM, Zcchc11 0.2 nM, 5′-fluorescein pre-let-7 miRNA 2 nM, UTP 5 uM, room temperature, 30 minutes pre-incubation
[3] = Lin28a-dependent Zcchc11 (Z11) TUTase assay

Row | IC50 [1] | IC50 [3] | SMILES | further results
1 | 10 to 50 µM | – | O=C(O)c1cn(C2CC2)c2cc(N3CCC[C@H]3COc3ccccn3)c(F)cc2c1=O [Compound 81, (S)-1-cyclopropyl-6-fluoro-4-oxo-7-(2-((pyridin-2-yloxy)methyl)pyrrolidin-1-yl)-1,4-dihydro-quinoline-3-carboxylic acid] | –
2 | – | – | COCCN1CCC(n2cc(C(=O)O)c(=O)c3cc(Cl)c(N4CCC[C@@H]4COc4ncccc4Cl)cc32)C1 (stereo partly drawn) [Example 38, 6-Chloro-7-[(2R)-2-{[(3-chloropyridin-2-yl)oxy]methyl}-pyrrolidin-1-yl]-1-[1-(2-methoxyethyl)pyrrolidin-3-yl]-4-oxo-1,4-dihydroquinoline-3-carboxylic acid] | IC50 [2]: 1 to 10 µM
3 | – | – | Cc1ccnn(C[C@H]2CCCN2c2cc3c(cc2F)c(=O)c(C(=O)O)cn3-c2ccc(O)cc2)c1=O [Example 23, (R)-6-fluoro-1-(4-hydroxyphenyl)-7-(2-((5-methyl-6-oxopyridazin-1(6H)-yl)methyl)pyrrolidin-1-yl)-4-oxo-1,4-dihydroquinoline-3-carboxylic acid] | IC50 [2]: ≤ 1 µM
4 | – | 1 to 10 µM | Cc1ccc(F)cc1-n1cc(C(=O)O)c(=O)c2cc(F)c(N3CCC[C@@H]3COc3ccccn3)cc21 [Example 393, (R)-6-fluoro-1-(5-fluoro-2-methylphenyl)-4-oxo-7-(2-((pyridin-2-yloxy)methyl)pyrrolidin-1-yl)-1,4-dihydroquinoline-3-carboxylic acid] | –
5 | 1 to 10 µM | – | O=C(O)c1cn(-c2ccc(O)cc2Cl)c2cc(N3CCC[C@@H]3COc3ccccn3)c(F)cc2c1=O [Compound 152, (R)-1-(2-chloro-4-hydroxy-phenyl)-6-fluoro-4-oxo-7-(2-((pyridin-2-yloxy)methyl)pyrrolidin-1-yl)-1,4-dihydro-quinoline-3-carboxylic acid] | –
6 | ≤ 1 µM | – | O=C(O)c1cn(-c2ccc(O)c(F)c2)c2cc(N3CCC[C@@H]3COc3ncccc3Cl)c(Cl)cc2c1=O [Compound 127, (R)-6-chloro-7-(2-(((3-chloropyridin-2-yl)oxy)methyl)pyrrolidin-1-yl)-1-(3-fluoro-4-hydroxy-phenyl)-4-oxo-1,4-dihydro-quinoline-3-carboxylic acid] | –
7 | ≤ 1 µM | – | Cn1cc(-n2cc(C(=O)O)c(=O)c3cc(C#N)c(N4CCCC4COc4ncccc4F)cc32)cn1 (racemic) [Compound 245, rac-(R)-6-cyano-7-(2-(((3-fluoropyridin-2-yl)oxy)methyl)pyrrolidin-1-yl)-1-(1-methyl-1H-pyrazol-4-yl)-4-oxo-1,4-dihydro-quinoline-3-carboxylic acid] | –
8 | – | 1 to 10 µM | O=C(O)c1cn(C2CCNCC2)c2cc(N3CCC[C@@H]3COc3ncccc3Cl)c(Cl)cc2c1=O [Example 368, 6-chloro-7-[(2R)-2-{[(3-chloropyridin-2-yl)oxy]methyl}pyrrolidin-1-yl]-4-oxo-1-(piperidin-4-yl)-1,4-dihydroquinoline-3-carboxylic acid] | –
9 | ≤ 1 µM | – | CN(C)C(=O)NC[C@H]1CCCN1c1cc2c(cc1Cl)c(=O)c(C(=O)O)cn2-c1ccc(N2CC(N(C)C)C2)nc1 [Compound 292, (R)-6-chloro-1-(6-(3-(dimethyl-amino)azetidin-1-yl)pyridin-3-yl)-7-(2-((3,3-dimethyl-ureido)methyl)pyrrolidin-1-yl)-4-oxo-1,4-dihydro-quinoline-3-carboxylic acid] | –
10 | ≤ 1 µM | – | CC1C[C@H](COc2ncccc2Cl)N(c2cc3c(cc2Cl)c(=O)c(C(=O)O)cn3-c2ccc(N3CC(N(C)C)C3)nc2)C1 (stereo partly drawn) [Compound 296, 6-chloro-7-((2R)-2-(((3-chloropyridin-2-yl)oxy)methyl)-4-methyl-pyrrolidin-1-yl)-1-(6-(3-(dimethyl-amino)azetidin-1-yl)pyridin-3-yl)-4-oxo-1,4-dihydro-quinoline-3-carboxylic acid] | –
11 | ≤ 1 µM | – | O=C(O)c1cn(-c2cnn(C3CNC3)c2)c2nc(N3CCC[C@@H]3COc3ncccc3F)c(Cl)cc2c1=O (racemic) [Compound 192, rac-(R)-1-(1-(azetidin-3-yl)-1H-pyrazol-4-yl)-6-chloro-7-(2-(((3-fluoropyridin-2-yl)oxy)methyl)pyrrolidin-1-yl)-4-oxo-1,4-dihydro-1,8-naphthyridine-3-carboxylic acid hydrochloride] | –
12 | – | ≤ 1 µM | CCc1cc2c(=O)c(C(=O)O)cn(-c3ccc(N4CC(N(C)C)C4)nc3)c2cc1N1CCC[C@@H]1COc1ncccc1Cl [Example 546, (R)-7-(2-(((3-chloropyridin-2-yl)oxy)methyl)pyrrolidin-1-yl)-1-(6-(3-(dimethylamino)azetidin-1-yl)pyridin-3-yl)-6-ethyl-4-oxo-1,4-dihydroquinoline-3-carboxylic acid] | –
13 | – | – | COc1ccc(Cl)c(OC[C@H]2CC(c3cn[nH]c3)CN2c2cc3c(cc2F)c(=O)c(C(=O)O)cn3-c2ccc(N3CC(N(C)C)C3)nc2)n1 (stereo partly drawn) [Example 71, 7-[(2R)-2-[[(3-chloro-6-methoxypyridin-2-yl)oxy]methyl]-4-(1H-pyrazol-4-yl)pyrrolidin-1-yl]-1-[6-[3-(dimethylamino)azetidin-1-yl]pyridin-3-yl]-6-fluoro-4-oxoquinoline-3-carboxylic acid] | IC50 [2]: ≤ 1 µM
14 | – | ≤ 1 µM | CN(C)C1CN(c2ccc(-n3cc(C(=O)O)c(=O)c4cc(Cl)c(N5CCC[C@@]5(C)COc5ncccc5Cl)cc43)cn2)C1 [Example 639, (S)-6-chloro-7-(2-(((3-chloropyridin-2-yl)oxy)methyl)-2-methylpyrrolidin-1-yl)-1-(6-(3-(dimethylamino)azetidin-1-yl)pyridin-3-yl)-4-oxo-1,4-dihydroquinoline-3-carboxylic acid] | –
15 | ≤ 1 µM | – | CN(C)C1CN(c2ccc(-n3cc(C(=O)O)c(=O)c4cc(Cl)c(N5CC(c6cccnn6)C[C@@H]5COc5ncccc5Cl)cc43)cn2)C1 (mixture of isomers) [Compound 307, rac-6-chloro-7-((2R)-2-(((3-chloropyridin-2-yl)oxy)methyl)-4-(pyridazin-3-yl)pyrrolidin-1-yl)-1-(6-(3-(dimethyl-amino)azetidin-1-yl)pyridin-3-yl)-4-oxo-1,4-dihydro-quinoline-3-carboxylic acid] | –
16 | – | ≤ 1 µM | O=C(O)c1cn(C2CCc3nccn3C2)c2cc(N3CCC[C@@H]3COc3ncccc3Cl)c(Cl)cc2c1=O (stereo partly drawn) [Example 469, 6-chloro-7-((R)-2-(((3-chloropyridin-2-yl)oxy)methyl)pyrrolidin-1-yl)-4-oxo-1-(5,6,7,8-tetrahydroimidazo [1,2-a]pyridin-6-yl)-1,4-dihydroquinoline-3-carboxylic acid] | –
17 | ≤ 1 µM | – | O=C(O)c1cn(-c2ccc(O)cc2F)c2cc(N3CCC[C@@H]3COc3ccccn3)c(F)cc2c1=O [Compound 83, (R)-6-fluoro-1-(2-fluoro-4-hydroxy-phenyl)-4-oxo-7-(2-((pyridin-2-yloxy)methyl)pyrrolidin-1-yl)-1,4-dihydro-quinoline-3-carboxylic acid] | –
18 | – | ≤ 1 µM | N#Cc1cc2c(=O)c(C(=O)O)cn(-c3ccc(N4CCC4)nc3)c2cc1N1CCC[C@@H]1COc1ncccc1Cl [Example 488, 1-[6-(azetidin-1-yl)pyridin-3-yl]-7-[(2R)-2-{[(3-chloropyridin-2-yl)oxy)methyl}pyrrolidin-1-yl]-6-cyano-4-oxo-1,4-dihydroquinoline-3-carboxylic acid] | –
19 | – | ≤ 1 µM | CC(=O)Nc1ccc(-n2cc(C(=O)O)c(=O)c3cc(Cl)c(N4CCC[C@@H]4COc4ncccc4Cl)cc32)cn1 [Example 426, (R)-1-(6-acetamidopyridin-3-yl)-6-chloro-7-(2-(((3-chloro-pyridin-2-yl)oxy)methyl)pyrrolidin-1-yl)-4-oxo-1,4-dihydroquinoline-3-carboxylic acid] | –

Row | SMILES | IC50 [1] | IC50 [3] | further results
20 | CC(C)(C)OC(=O)N1CC(c2ccc(-n3cc(C(=O)O)c(=O)c4cc(Cl)c(N5CCC[C@@H]5COc5ncccc5Cl)cc43)cn2)C1 [Example 615, (R)-1-(6-(1-(tert-butoxycarbonyl)azetidin-3-yl)pyridin-3-yl)-6-chloro-7-(2-(((3-chloropyridin-2-yl)oxy)methyl)pyrrolidin-1-yl)-4-oxo-1,4-dihydroquinoline-3-carboxylic acid] | – | ≤ 1 µM | –
